This experiment concerns the target aldose reductase (AR) (Capra hircus, UniProt A0A452EAQ3). Nature of the experiment: NADPH oxidation at […] nm with xylose as substrate. The experiment is classed as cell-based. To be noted: read-out: % inhibition at 4.5 μg/ml.

On to `O=c1c(O)c(-c2ccc(O)c(O)c2)oc2cc(O)cc(O)c12` [quercetin], for which the inhibition at 4.5 µg/mL was 64.6%.

The values above are taken from article PMC5314825 (Journal of Pharmacy & Bioallied Sciences, 2016).
